The results in this text go back to US12240846B2 (Enliven Inc., priority 2020, dated 2025).

A value given as a limit tells only on which side of the number the result lay.

The IC50 is the concentration needed to halve the response being measured.

The target in one assay is ABL1 (T315I) (Homo sapiens, UniProt P00519, T315I). Kind of assay: Luminescence-based ABL kinase assay (300 μM ATP), ADP-Glo. Format: biochemical. On the technique in general: In ADP-Glo the light output rises with the ADP produced.
A further assay concerns the target T1, ABL1 (Homo sapiens, UniProt P00519).
T1 construct: purchased Carna Biosciences
The description is as above. Format: biochemical. An excerpt:
Compounds were serially diluted in DMSO. […] Luminescence signal positively correlates with kinase activity.

Another assay deals with K562 cells. Kind of assay: K562 cell proliferation assay (CellTiter-Glo). The assay is classed as cell-based. The note with it: Homo sapiens, K562 cell viability, 72 hours, read-out: Cell Line (IC50, nM) K562. As for the experimental part: (§1) K562 and HL60 Cell Proliferation Assay
(§2) K562 and HL60 cells, cultured in Iscove's Modified Dulbecco's Media (IMDM) supplemented with 10% FBS, were harvested at 50-80% confluency and plated at 2,000 cells per well (K562) or 1,500 cells per well (HL60) in 384-well tissue culture plates. A subset of wells contained media only (low control, LC). […] The plates were placed in a 37° C. incubator with 5% CO2 for 72 hours. Cell viability was measured using a CellTiter-Glo luminescent cell viability assay (Promega), which allows for relative quantification of metabolically active cells by luminescence-based measurements of intracellular ATP concentrations. Briefly, plates were removed from the incubator and equilibrated for 15 minutes at room temperature prior to the addition of 40 μL of CellTiter-Glo reagent. Plates were then incubated for 30 minutes at room temperature. Luminescence was measured using an EnSpire plate reader (Perkin Elmer). As noted above, luminescence values from wells with DMSO only or media without cells were used as high and low controls (HC and LC), respectively. Normalized percent viability was calculated as follows: percent viability=100×(Lumsample−LumLC)/(LumHC−LumLC).

The test system of another assay is HL60 cells. Kind of assay: HL60 cell proliferation assay (CellTiter-Glo). Format: cell-based. The following applies: Homo sapiens, HL-60, HL60 cell viability, 72 hours, read-out: Cell Line (IC50, nM) HL60. As to the method:
as §1, §2
In general terms: Cellular ATP, detected with luciferase, serves as a proxy for viable cell number.

`COc1ccccc1-c1cc2cc(NC(=O)[C@H]3C[C@H]3CO)ncc2n1C` (relative stereo) [Compound 23, cis-2-(hydroxymethyl)-N-(2-(2-methoxyphenyl)-1-methyl-1H-pyrrolo[2,3-c]pyridin-5-yl)cyclopropane-1-carboxamide]: the IC50 against ABL1 (T315I) was 79.5 nM; against ABL1, 119 nM; in the assay with K562 cells, 631 nM; with HL60 cells it was 1690 nM.

For `COc1ccnc(OC)c1-c1cc2cc(NC(=O)[C@@H]3C[C@H]3CN3CCN(C)CC3)ncc2n1C` (single isomer, unassigned) [Compound 121], the IC50 against ABL1 (T315I) was 87.9 nM; against ABL1, 88.8 nM; with K562 cells it was 99.1 nM; in the assay with HL60 cells, more than 10000 nM.

With `COc1ccnc(OC)c1-c1cc2cc(NC(=O)[C@@H]3C[C@H]3CN(C)C)ncc2n1C` (single isomer, unassigned) [Compound 122], the IC50 against ABL1 (T315I) was 52.8 nM; on ABL1 it was 53.4 nM; in the assay with K562 cells it was 117 nM; in the assay on HL60 cells, more than 10000 nM.

Turning to `COc1ccnc(OC)c1-c1cc2cc(NC(=O)[C@H]3C[C@@H]3CN(C)C)ncc2n1C` (single isomer, unassigned) [Compound 123], the concentration for half-maximal inhibition (IC50) against ABL1 (T315I) was found to be 80.6 nM; on ABL1 it was 59.4 nM; in the assay on K562 cells it was 106 nM; with HL60 cells, 1770 nM.

In the case of `COc1ncnc(OC)c1-c1cc2cc(NC(=O)[C@H]3C[C@@H]3CN3CCN(C)CC3)ncc2n1C` (single isomer, unassigned) [Compound 124], the IC50 is 56.7 nM on ABL1 (T315I), 14.9 nM against ABL1, 41.4 nM in the assay with K562 cells and more than 10000 nM with HL60 cells.

Consider `COc1ncnc(OC)c1-c1cc2cc(NC(=O)[C@@H]3C[C@H]3CN3CCN(C)CC3)ncc2n1C` (single isomer, unassigned) [Compound 125], for which the IC50 against ABL1 (T315I) was 107 nM; at ABL1, 48.3 nM; in the assay with K562 cells it was 113 nM; in the assay with HL60 cells it was more than 10000 nM.

`COc1ncc(F)c(OC)c1-c1cc2cc(NC(=O)[C@@H]3C[C@H]3CN3CCN(C)CC3)ncc2n1C` (single isomer, unassigned) [Compound 129]: the IC50 was 34.6 nM at ABL1 (T315I), 33.4 nM against ABL1, 85.5 nM in the assay on K562 cells and more than 10000 nM in the assay with HL60 cells.

Turning to `COc1ncc(F)c(OC)c1-c1cc2cc(NC(=O)[C@@H]3C[C@H]3CN(C)C)ncc2n1C` (single isomer, unassigned) [Compound 130], the IC50 against ABL1 (T315I) was 58.1 nM; on ABL1, 37.3 nM; in the assay with K562 cells it was 108 nM; in the assay with HL60 cells it was more than 10000 nM.

Regarding `COc1ccccc1-c1cc2cc(NC(=O)C3CC3)ncc2n1C` [Compound 2, N-(2-(2-methoxyphenyl)-1-methyl-1H-pyrrolo[2,3-c]pyridin-5-yl)cyclopropanecarboxamide], the half-inhibitory concentration (IC50) on ABL1 (T315I) came out at 17.7 nM; on ABL1, 25.4 nM; in the assay on K562 cells, 109 nM; in the assay with HL60 cells, 202 nM.

`Cc1c(O)cccc1-c1cc2cc(NC(=O)C3CC3)ncc2n1C` [Compound 7, N-[2-(3-hydroxy-2-methylphenyl)-1-methylpyrrolo[2,3-c]pyridin-5-yl]cyclopropanecarboxamide]: the IC50 against ABL1 (T315I) was 6.59 nM; against ABL1, 9.22 nM; in the assay with K562 cells, 37.8 nM; in the assay with HL60 cells, 60.9 nM.

As for `COc1cccc(C)c1-c1cc2cc(NC(=O)C3CC3)ncc2n1C` [Compound 11, N-[2-(2-methoxy-6-methylphenyl)-1-methylpyrrolo[2,3-c]pyridin-5-yl]cyclopropanecarboxamide], the IC50 against ABL1 (T315I) is 38.6 nM; against ABL1, 13.8 nM; in the assay on K562 cells, 0.421 nM; with HL60 cells it was 182 nM.

Take `Cn1c(-c2cc(F)cnc2OC2CC2)cc2cc(NC(=O)[C@@H]3C[C@@H]3F)ncc21` [Compound 140, (1S,2S)-N-[2-(2-cyclopropoxy-5-fluoropyridin-3-yl)-1-methylpyrrolo[2,3-c]pyridin-5-yl]-2-fluorocyclopropane-1-carboxamide]: the IC50 against ABL1 is 95.8 nM; in the assay on K562 cells, 291 nM; in the assay on HL60 cells, more than 10000 nM.
